Experiments:
Conditions in all cases: Compound concentration 1.0 uM
[1] = target: T1, Ephrin type-A receptor 8 (Homo sapiens) (UniProt P29322)
T1 sequence (whole entry): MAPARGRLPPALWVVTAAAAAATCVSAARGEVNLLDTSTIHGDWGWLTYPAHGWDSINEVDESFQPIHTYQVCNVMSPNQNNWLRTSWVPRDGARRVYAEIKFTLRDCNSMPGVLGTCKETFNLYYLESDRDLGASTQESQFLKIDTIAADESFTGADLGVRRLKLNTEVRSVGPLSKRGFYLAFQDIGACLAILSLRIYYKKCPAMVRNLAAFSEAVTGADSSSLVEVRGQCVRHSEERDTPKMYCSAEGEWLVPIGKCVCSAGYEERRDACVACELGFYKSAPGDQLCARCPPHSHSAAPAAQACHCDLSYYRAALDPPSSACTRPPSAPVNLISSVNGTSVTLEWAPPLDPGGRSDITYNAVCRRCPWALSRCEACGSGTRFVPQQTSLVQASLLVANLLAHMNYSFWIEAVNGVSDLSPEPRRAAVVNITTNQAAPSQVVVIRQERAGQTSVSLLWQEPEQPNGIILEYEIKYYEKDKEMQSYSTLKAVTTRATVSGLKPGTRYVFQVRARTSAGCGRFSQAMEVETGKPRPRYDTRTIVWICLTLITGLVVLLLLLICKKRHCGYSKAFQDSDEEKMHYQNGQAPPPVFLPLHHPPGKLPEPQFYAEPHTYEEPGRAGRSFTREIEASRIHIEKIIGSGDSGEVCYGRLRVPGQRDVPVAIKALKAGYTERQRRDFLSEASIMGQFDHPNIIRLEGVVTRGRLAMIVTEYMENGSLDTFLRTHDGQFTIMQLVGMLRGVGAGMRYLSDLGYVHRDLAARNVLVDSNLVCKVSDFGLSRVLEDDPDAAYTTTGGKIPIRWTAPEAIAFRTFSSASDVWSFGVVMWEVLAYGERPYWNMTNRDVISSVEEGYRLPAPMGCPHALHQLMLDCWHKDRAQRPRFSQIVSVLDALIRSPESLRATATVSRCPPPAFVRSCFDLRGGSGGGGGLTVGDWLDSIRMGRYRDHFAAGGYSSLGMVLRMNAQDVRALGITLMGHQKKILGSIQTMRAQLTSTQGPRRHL

[2] = target: High affinity nerve growth factor receptor (Homo sapiens) (UniProt P04629)
[3] = target: T2, Serine/threonine-protein kinase MAK (Homo sapiens) (UniProt P20794)
T2 sequence (whole entry): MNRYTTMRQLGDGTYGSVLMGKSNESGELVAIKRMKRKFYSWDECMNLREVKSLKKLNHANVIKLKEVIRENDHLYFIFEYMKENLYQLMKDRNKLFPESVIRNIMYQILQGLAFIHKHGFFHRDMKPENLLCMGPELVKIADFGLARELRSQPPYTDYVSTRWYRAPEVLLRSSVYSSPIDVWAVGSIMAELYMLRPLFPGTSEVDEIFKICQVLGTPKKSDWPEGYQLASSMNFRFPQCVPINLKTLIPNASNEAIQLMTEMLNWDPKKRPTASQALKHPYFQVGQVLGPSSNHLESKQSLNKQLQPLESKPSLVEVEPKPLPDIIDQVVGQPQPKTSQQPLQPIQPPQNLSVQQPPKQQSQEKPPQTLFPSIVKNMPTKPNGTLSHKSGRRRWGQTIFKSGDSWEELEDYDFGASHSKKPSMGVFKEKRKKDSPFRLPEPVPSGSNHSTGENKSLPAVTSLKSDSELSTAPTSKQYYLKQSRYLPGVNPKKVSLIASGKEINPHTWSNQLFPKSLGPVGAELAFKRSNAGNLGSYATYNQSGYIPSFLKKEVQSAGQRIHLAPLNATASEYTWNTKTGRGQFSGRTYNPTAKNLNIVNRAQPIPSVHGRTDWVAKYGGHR

[4] = target: Protein kinase C delta type (Homo sapiens) (UniProt Q05655)
[5] = target: Calcium/calmodulin-dependent protein kinase kinase 1 (Homo sapiens) (UniProt Q8N5S9)
[6] = target: MAP kinase-activated protein kinase 3 (Homo sapiens) (UniProt Q16644)
[7] = target: Tyrosine-protein kinase JAK1 (Homo sapiens) (UniProt P23458)
[8] = target: Cyclin-dependent kinase 5/CDK5 activator 1 (Homo sapiens) (UniProt Q00535+Q15078)
[9] = target: Serine/threonine-protein kinase pim-3 (Homo sapiens) (UniProt Q86V86)
[10] = target: Bone morphogenetic protein receptor type-1B (Homo sapiens) (UniProt O00238)
[11] = target: T3, G protein-coupled receptor kinase 3 (Homo sapiens) (UniProt P35626)
T3 sequence (whole entry): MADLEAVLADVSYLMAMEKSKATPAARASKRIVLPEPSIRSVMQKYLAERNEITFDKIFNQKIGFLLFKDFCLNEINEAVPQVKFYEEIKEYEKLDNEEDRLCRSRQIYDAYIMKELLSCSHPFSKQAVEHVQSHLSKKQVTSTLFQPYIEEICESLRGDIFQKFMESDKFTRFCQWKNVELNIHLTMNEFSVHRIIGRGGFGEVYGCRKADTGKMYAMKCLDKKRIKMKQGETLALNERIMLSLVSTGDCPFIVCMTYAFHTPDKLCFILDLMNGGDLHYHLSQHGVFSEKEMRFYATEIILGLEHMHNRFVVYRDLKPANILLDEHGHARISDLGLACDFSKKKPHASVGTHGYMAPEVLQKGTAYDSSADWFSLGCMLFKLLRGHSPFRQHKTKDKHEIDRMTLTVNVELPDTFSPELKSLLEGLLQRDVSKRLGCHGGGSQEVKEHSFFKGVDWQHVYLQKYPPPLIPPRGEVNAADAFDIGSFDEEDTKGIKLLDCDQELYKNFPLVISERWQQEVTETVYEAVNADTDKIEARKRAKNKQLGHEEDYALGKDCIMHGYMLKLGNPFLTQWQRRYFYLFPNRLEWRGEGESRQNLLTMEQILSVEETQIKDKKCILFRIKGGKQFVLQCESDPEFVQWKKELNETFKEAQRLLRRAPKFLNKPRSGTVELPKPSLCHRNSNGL

Measured: % residual kinase activity

Sequence of Protein kinase C delta type (Homo sapiens) (Q05655 whole entry, looked up): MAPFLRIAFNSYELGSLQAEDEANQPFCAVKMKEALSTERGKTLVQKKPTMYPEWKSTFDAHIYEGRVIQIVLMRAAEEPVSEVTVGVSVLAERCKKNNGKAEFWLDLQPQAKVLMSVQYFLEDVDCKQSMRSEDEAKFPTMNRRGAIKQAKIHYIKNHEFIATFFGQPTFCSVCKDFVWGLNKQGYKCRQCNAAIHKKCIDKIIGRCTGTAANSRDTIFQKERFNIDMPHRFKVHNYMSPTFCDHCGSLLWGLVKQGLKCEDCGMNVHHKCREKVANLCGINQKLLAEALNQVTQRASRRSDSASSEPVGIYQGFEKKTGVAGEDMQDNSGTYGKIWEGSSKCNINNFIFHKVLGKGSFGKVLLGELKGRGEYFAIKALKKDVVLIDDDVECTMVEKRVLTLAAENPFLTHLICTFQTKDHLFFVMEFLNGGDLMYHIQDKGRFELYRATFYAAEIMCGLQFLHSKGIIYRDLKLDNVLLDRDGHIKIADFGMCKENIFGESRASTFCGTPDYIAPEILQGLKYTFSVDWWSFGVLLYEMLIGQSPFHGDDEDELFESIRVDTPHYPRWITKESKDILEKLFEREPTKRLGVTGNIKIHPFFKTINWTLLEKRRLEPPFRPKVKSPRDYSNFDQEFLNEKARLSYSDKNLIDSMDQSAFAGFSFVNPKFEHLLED
Sequence of Cyclin-dependent kinase 5/CDK5 activator 1 (Homo sapiens) (Q00535 whole entry): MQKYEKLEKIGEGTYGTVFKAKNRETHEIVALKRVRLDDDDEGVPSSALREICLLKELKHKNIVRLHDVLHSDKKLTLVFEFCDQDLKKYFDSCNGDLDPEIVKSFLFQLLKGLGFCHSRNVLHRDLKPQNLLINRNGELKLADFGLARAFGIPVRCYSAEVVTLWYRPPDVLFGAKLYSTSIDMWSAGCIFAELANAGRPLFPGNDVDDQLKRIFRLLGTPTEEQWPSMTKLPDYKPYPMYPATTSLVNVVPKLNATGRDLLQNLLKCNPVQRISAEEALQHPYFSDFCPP
Sequence of Cyclin-dependent kinase 5/CDK5 activator 1 (Homo sapiens) (Q15078 99-307 partner limits assumed): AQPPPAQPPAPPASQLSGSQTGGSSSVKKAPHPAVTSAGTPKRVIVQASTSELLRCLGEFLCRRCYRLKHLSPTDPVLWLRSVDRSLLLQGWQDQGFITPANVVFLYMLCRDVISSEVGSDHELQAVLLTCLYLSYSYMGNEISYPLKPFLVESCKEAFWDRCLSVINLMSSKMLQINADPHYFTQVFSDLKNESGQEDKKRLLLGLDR
Sequence of MAP kinase-activated protein kinase 3 (Homo sapiens) (Q16644 whole entry, looked up): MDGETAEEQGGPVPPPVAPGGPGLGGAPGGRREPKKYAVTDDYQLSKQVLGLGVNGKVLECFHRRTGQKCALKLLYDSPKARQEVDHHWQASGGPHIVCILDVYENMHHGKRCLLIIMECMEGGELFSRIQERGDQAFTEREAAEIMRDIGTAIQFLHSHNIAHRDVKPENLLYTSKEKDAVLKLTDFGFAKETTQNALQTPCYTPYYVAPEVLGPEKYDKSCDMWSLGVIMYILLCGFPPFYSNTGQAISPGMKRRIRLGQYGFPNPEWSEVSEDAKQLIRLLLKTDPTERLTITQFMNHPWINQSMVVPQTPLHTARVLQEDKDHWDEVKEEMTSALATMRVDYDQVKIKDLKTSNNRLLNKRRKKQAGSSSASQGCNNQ
Sequence of High affinity nerve growth factor receptor (Homo sapiens) (P04629 33-796 limits assumed): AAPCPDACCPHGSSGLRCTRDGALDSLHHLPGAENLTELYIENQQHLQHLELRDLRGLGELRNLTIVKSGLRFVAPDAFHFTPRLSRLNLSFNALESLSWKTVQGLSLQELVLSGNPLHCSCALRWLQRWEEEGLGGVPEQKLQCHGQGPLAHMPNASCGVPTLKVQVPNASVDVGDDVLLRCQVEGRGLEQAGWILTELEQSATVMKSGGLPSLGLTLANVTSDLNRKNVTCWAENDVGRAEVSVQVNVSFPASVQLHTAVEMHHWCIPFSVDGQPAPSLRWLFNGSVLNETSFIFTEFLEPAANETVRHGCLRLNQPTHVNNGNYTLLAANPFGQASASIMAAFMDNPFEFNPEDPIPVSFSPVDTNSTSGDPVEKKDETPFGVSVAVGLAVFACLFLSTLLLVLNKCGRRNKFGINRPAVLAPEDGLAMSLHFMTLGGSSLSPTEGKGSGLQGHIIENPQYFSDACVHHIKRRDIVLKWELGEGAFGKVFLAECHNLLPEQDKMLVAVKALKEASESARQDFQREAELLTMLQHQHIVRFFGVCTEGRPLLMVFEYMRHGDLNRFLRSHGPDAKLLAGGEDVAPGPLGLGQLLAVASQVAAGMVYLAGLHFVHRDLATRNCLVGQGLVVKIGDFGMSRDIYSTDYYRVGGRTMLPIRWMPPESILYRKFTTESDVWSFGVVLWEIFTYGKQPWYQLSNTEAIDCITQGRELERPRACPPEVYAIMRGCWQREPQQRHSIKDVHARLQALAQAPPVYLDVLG
Sequence of Bone morphogenetic protein receptor type-1B (Homo sapiens) (O00238 whole entry): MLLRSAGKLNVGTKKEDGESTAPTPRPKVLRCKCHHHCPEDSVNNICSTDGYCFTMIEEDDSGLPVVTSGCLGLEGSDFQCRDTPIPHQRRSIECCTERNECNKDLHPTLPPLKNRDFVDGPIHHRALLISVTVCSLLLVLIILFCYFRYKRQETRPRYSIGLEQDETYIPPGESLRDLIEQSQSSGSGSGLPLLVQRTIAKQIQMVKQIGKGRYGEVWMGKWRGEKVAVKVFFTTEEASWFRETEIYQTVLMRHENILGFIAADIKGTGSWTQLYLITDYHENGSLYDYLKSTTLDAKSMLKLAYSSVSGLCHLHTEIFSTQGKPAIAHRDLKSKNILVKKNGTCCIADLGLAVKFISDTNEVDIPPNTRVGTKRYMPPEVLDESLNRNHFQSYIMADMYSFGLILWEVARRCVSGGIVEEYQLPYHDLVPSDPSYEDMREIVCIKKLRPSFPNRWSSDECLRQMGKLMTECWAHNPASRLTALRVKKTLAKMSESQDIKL
Sequence of Tyrosine-protein kinase JAK1 (Homo sapiens) (P23458 whole entry): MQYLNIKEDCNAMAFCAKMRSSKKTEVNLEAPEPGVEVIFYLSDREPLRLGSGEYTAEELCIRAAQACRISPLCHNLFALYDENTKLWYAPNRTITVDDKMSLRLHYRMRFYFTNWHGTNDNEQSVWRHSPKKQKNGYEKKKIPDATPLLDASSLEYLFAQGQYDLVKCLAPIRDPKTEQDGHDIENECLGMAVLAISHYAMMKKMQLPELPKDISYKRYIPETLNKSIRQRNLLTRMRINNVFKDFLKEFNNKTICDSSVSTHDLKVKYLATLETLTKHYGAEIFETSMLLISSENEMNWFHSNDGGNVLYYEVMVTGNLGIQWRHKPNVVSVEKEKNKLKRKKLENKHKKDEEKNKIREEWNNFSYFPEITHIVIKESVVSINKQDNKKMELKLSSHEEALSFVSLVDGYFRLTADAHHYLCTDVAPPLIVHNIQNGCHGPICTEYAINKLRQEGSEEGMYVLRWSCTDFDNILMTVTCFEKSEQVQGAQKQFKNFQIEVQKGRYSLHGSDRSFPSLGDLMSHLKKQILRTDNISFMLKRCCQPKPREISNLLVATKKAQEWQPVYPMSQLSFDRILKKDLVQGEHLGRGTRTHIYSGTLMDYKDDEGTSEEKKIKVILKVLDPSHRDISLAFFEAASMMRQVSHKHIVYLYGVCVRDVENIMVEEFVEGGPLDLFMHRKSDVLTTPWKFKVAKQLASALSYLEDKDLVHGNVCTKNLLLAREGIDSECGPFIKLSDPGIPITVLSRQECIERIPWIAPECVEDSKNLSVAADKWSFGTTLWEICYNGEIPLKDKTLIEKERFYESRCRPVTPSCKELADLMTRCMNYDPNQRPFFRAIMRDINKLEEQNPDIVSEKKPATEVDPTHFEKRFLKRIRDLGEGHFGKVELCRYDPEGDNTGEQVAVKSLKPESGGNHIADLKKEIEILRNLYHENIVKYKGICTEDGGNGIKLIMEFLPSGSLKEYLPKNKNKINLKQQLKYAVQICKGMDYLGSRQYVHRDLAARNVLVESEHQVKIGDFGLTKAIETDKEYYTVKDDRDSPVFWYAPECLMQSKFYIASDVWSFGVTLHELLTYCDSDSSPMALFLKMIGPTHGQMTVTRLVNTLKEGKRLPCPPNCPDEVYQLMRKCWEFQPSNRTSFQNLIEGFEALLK
Sequence of Calcium/calmodulin-dependent protein kinase kinase 1 (Homo sapiens) (Q8N5S9 whole entry, looked up): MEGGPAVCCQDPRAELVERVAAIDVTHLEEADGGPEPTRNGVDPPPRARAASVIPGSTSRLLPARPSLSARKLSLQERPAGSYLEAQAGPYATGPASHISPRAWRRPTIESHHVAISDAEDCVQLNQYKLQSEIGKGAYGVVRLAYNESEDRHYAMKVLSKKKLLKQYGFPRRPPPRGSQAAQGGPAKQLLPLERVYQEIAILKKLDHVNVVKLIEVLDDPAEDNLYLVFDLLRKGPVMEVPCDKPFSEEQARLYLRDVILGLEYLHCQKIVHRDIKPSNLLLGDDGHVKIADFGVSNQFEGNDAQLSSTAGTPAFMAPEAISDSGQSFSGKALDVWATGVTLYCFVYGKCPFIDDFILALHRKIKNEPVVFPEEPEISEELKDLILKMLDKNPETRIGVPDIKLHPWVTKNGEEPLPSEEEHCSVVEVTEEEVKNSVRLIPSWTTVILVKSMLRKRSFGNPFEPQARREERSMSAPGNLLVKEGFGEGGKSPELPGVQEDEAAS

CN1CCN(c2cnc3c(C4CCN(C(=O)c5ccc(OC(F)(F)F)cc5N)CC4)ncnc3c2)CC1 [BAY-885]
inactive: [1] 104% | [2] 110% | [3] 125% | [4] 115% | [5] 102% | [6] 113% | [7] 104% | [8] 107% | [9] 102% | [10] 102% | [11] 92%

From ChEMBL document CHEMBL4507268 (2021)
